Columns and labels:
TM00096 human TNBC tumor = assay: Tumor growth in patient-derived xenograft (PDX) mouse model of TNBC; assay type: in vivo; settings: for tumor growth by infrared 2DG image analysis: 2 mg/Kg Bwt i.p., end of 4th week; for final tumor volume (mean±SD): after 4 weeks (2 weeks dosing 2 mg/Kg Bwt i.p. alternate days + 2 weeks follow-up), vehicle 949.15±769.15; for initial tumor volume (mean±SD): day 0, 2 mg/Kg Bwt i.p. every alternate day for two weeks
Experimental: FIG. 12 illustrates an embodiment of the present invention and illustrates SIM-1 and SIM-2 arrest the growth of human TNBC tumor in patient-derived xenograft mouse model. TM00096 tumor (origin of invasive ductal carcinoma isolated from a person) was seeded in the flank of 6-week-old female SCID mice by Jackson Laboratory and then shipped to our research facility. Once the tumor reached ˜4 mm in size (˜30 mm^3 in volume), n=6 mice/group were treated by vehicle (5% DMSO), SIM-1 and SIM-2 (2 mg/Kg Bwt mixed with 5% DMSO) via i.p. for 2 weeks in every alternate day. The tumor size was monitored accordingly during the treatment and two more weeks after the last dose to evaluate the recurrence. After 4 weeks, Mice received IRDye 800-tagged 2DG (2-deoxy glucose) probe via tail vein and then imaged in infrared scanner. […] Red spots enclosed in a squares are tumor tissue. Other red spots are non-specific organs with high metabolic activity. (B) Tumor size was measured every alternate day for 4 weeks by a digital caliper and then the volume was calculated using the formula 0.5*Length*Width^2. […] (D) Body weight was recorded during the course of the study to monitor the adverse metabolic outcome due to the drug administration. (E) The heart rate was monitored at 0-, 7-, 14-, and 28-days post SIM-1 and SIM-2 treatments by MouseStat Jr console (Kent Scientific) as per the manufacturer's instruction. (F) At the end of the study, the gross motor performance was recorded for n=6 (i) vehicle, (ii) SIM-1-, and (iii) SIM-2-treated mice. […] Gross movement parameters including (G) the total distance traveled, and (H) the average speed were monitored and plotted by scatter histograms (n=6/group; not significant as shown by one-way ANOVA).
Acquisition, housing, and treatment of PDX mice. Grade 3 invasive ductal carcinoma tumor fragments were harvested from a patient, genotyped for ER-, PR-, and Her2low, and were engrafted in the flank region of 6-to-7-week-old female NOD.Cg-Prkdcscid Il2rgtm1Wjl/SzJ mouse. These tumor-bearing mice were commercially purchased from Jackson Laboratories (Cat #TM00096). Since these mice are severely immunocompromised, special housing was required in a barrier room with restricted air flow and sterile foods. All animal studies were performed under an Institutional Animal Care and Use Committee-approved protocol (Study ID #). […] For the treatment, 2 mg/Kg bwt doses of both SIM-1 and SIM-2 were dissolved in 5% DMSO and then administered intraperitoneally every alternate day for two weeks and followed up for additional two weeks. To ensure safety and toxicity, vital health parameters such as body weight, heart rate, and body temperature were recorded every alternate day for one month. Tumor growth was assessed every alternate day for one month by a digital caliper. Tumor volume was estimated by the formula 0.5× (length×width2). The treatment started once the tumor reached 4 mm in size with an approximate volume of ˜30 mm^3. Mice received drugs for two weeks and left untreated for an additional two weeks to monitor the effect of drug withdrawal on the tumor size. On the penultimate day of the study, mice were injected with 100 μL of […] 2DG dye. The next day, mice were euthanized and then imaged in a Li—CoR infrared scanner to measure tumor size. After that, tumor tissues were harvested from the flank, washed in cold PBS, again imaged with a scalebar, and finally preserved in a −80° C. freezer for subsequent analyses such as genetic and immunoassays.
This example provides a representative experiment of the present invention that studies the effects of both SIM-1 and SIM-2 on the regression and growth arrest of tumors in vivo in the PDX mouse model of TNBC. […]

[1] = tested on: STAT3-dependent tumor-promoting genes; assay: Gene array of 66 STAT3-dependent tumor-promoting genes in PDX tumors; assay type: in vivo, mouse; settings: tumor tissue; for number of the 66 STAT3-dependent genes strongly downregulated: out of 66 genes
Experimental: FIG. 15 illustrates an embodiment of the present invention and illustrates SIM 1 and 2 inhibited Y705P phosphorylation of STAT3 and the expressions of STAT3-dependent tumor supportive genes. (A) DAB immunostaining of Y705P STAT3 in tumor parenchyma of all three groups. (B) Quantitative analysis of Y705P STAT3-ir cells was performed by counting Y705P STAT3 cells in 15 different images, converting into a percent scale, and then plotting in a scatter histogram. On-way ANOVA followed by multiple comparison test indicated ****p<0.0001 versus control. (C) DAB immunostaining of S727P STAT3 followed by a (D) quantitative analysis of S727P STAT3-ir cells was performed in 15 different images and then plotted as a percent of total cells by a scatter histogram. On-way ANOVA represents no significance (NS) between groups. (E) Immunoblot analyses of Y705PSTAT3 (Rabbit […] antibody Cat #710093; Invitrogen), S727PSTAT3 (Mouse 1° antibody cat #MA5-15208; Invitrogen) followed by normalization with loading control β-actin (Mouse 1° antibody cat #MA1-744; Invitrogen). (F) A cDNA-based gene array of 66 STAT3-dependent tumor promoting genes were analyzed in TNBC tumors of vehicle-, SIM-1-, and SIM-2-treated mice. (G) A scatter plot summarized the gene array results. Based on the relative levels of expressions, gene levels were classified as low, moderate, and highly expressed. Results are confirmed after three different experiments.
These genes include anti-apoptotic genes such as bcl-2, survivin, and bcl-xl; cell cycle progression markers such as cyclin D1, akt, and p21.

Row | Structure (SMILES) | tumor growth by infrared 2DG image analysis (TM00096 human TNBC tumor) | final tumor volume (mean±SD) (TM00096 human TNBC tumor) [mm^3] | initial tumor volume (mean±SD) (TM00096 human TNBC tumor) [mm^3] | number of the 66 STAT3-dependent genes strongly downregulated [1] | tumor growth suppressor gene p53 expression [1]
1 | O=C(O)CCC(=O)NCc1csc2ccc(Cl)cc12 [SIM-1, 4-[(5-chloro-1-benzothiophen-3-yl)methylamino]-4-oxobutanoic acid] | significantly arrested the growth | 126.69±29.98 | 37.65±15.41 | 55 | significantly upregulated
2 | CCOC(=O)c1c(NC(C)=O)sc2c(Cl)c(/C=N/O)ccc12 [SIM-2, ethyl 2-acetamido-7-chloro-6-(hydroxyiminomethyl)-1-benzothiophene-3-carboxylate] | significantly arrested the growth | 134.09±41.77 | 37.43±7.07 | 55 | significantly upregulated

Source: patent publication US20250255847A1, “[…]s: Novel Drugs for Triple Negative Breast Cancer” (SIMMARON RSEARCH INC, priority 2024, published 2025)
